Assay results as given in patent US7569539B2, “Oral administration of calcitonin” (Novartis AG, priority 2002, dated 2009).
Like-named read-outs stand apart in the source and are kept apart here.

Experiments:
[1] = Effect of meal timing on plasma sCT after oral sCT/5-CNAC tablet in human subjects (Example 7); format: in vivo; conditions: tablet 1 mg sCT + 5-CNAC disodium salt (equivalent to 200 mg 5-CNAC), 5 to 60 minutes prior to a meal instead of with a meal
[2] = as above; format: in vivo; conditions: for AUC / Cmax: both sexes, human, plasma, po, 1 mg, oral tablet 1 mg sCT + 5-CNAC disodium salt, plasma sCT; for AUC: read-out: Mean AUC ± SD; for Cmax: read-out: Mean Cmax ± SD
Description: The effect of administration of a tablet formulation of sCT in combination with 5-CNAC disodium salt at various time intervals relative to meals is measured in human subjects.
The tablet formulation employed is a formulation according to Example 5, comprising 1 mg sCT and 5-CNAC disodium salt in an amount corresponding to […] of 5-CNAC.
The study employs a seven-period, randomized, open-label, balanced Latin-square, crossover design. Twenty-one human healthy adult subjects (7 males, 7 pre-menopausal females and 7 post-menopausal females), between the ages of 18 and 65 years of age are involved. Pre- and post-menopausal females are matched for height (±0.5 cm) and weight (±8%).
The study consists of a screening period (−21 to −2 days prior to dosing), a baseline period (24-hour period prior to dosing, or day −1), and a treatment period comprised of seven daily single-dose administrations. Subjects are instructed to fast for at least 8 hours prior to undergoing screening evaluations so that blood samples can be drawn for bioanalytical testing. At baseline, subjects are admitted to the study center at least 12 hours prior to dosing and remain domiciled until study completion (one day following the final dose of study drug, or study day 8). The interdose interval between each treatment will be approximately 24 hours. Subjects are randomized according to the treatment allocation schedule to receive a single oral dose under either fasted or fed conditions. Under fed conditions, meal times vary relative to a fixed dosing time, in order to assess the effect of varying meal and dose intervals on drug pharmacokinetics.
During the treatment period, subjects fast overnight for a minimum of 10 hours prior to dosing, except when the specified treatment condition requires a meal to be served pre-dose. Dosing occurs between 9 and 10 AM for seven consecutive days. Meal times vary around a fixed dosing interval over a seven-day treatment period in order to determine optimal dosing times relative to food intake. Included is the administration of study drug under fasting conditions, which will serve as the reference condition to assess drug pharmacokinetics under varying meal and dose intervals, as well as study drug administration with meals, to determine the extent of food interaction.
The order in which subjects are initially dosed remains consistent throughout the study, so that the first subject dosed in period 1 remains the first subject dosed across all treatment conditions. Except where fasting is the specified treatment condition, subjects receive a standardized FDA (or equivalent) high-fat breakfast at a different time each day relative to dosing. Subjects whose treatment assignment is to fast, continue fasting for at least four hours post-dose, after which they may receive a standard meal at the specified time. Sampling for pharmacokinetic assessments are performed at scheduled intervals for up to 8 hours post-dose. If pharmacokinetic sampling times coincide with the start of a meal, sampling occurs first. Subjects are discharged from the study center one day following the final dose of study drug (day 8), after the completion of all safety evaluations.
Pharmacokinetic blood sampling is performed each day at the following timepoints (unless otherwise specified, when sampling times coincide with the start of a meal, sampling is done first): pre-dose (5 mL blood on each treatment day, lithium-heparin tubes to yield plasma), and then 5, 10, 15, 30, 45, 60, 90, 120, 180 and 240 minutes post-dose (3 mL blood), lithium-heparin tube to yield plasma). For treatment conditions B, C, D and E (see table below) one additional sample (3 mL) is obtained at 5 minutes after the start of the meal. For treatment condition E, the 10 minute sample also represents the 5-minute post-meal sample. For treatment B only, one additional sample is obtained at 15 minutes after the start of the meal (i.e., at 75 minutes post-dose). […]

[3] = Treatment group A: after overnight fast
[4] = Treatment group B: 1 hour pre-meal
[5] = Treatment group C: 30 minutes pre-meal
[6] = Treatment group D: 15 minutes pre-meal
[7] = Treatment group E: 5 minutes pre-meal
[8] = Treatment group G: 2.5 hours post-meal

increase (Cmax and AUC) in oral absorption [1]: ~5 fold | plasma levels of sCT ([2]; Groups C and D: administered either 15 or 30 minutes before a meal): maximum plasma levels | plasma levels of sCT ([2]; administration with a meal (Group F)): negligible | AUC [2, 3]: 0.0663 ± 0.0422 ng·h/mL | Cmax [2, 3]: 0.139 ± 0.0743 ng/mL | AUC [2, 4]: 0.0634 ± 0.0379 ng·h/mL | Cmax [2, 4]: 0.136 ± 0.0647 ng/mL | AUC [2, 5]: 0.079 ± 0.0793 ng·h/mL | Cmax [2, 5]: 0.162 ± 0.142 ng/mL | AUC [2, 6]: 0.0721 ± 0.0451 ng·h/mL | Cmax [2, 6]: 0.162 ± 0.0679 ng/mL | AUC [2, 7]: 0.0604 ± 0.0674 ng·h/mL | Cmax [2, 7]: 0.149 ± 0.151 ng/mL | AUC ([2]; Treatment group F: with meal): 0.0126 ± 0.0185 ng·h/mL | Cmax ([2]; Treatment group F: with meal): 0.024 ± 0.0267 ng/mL | AUC [2, 8]: 0.0611 ± 0.114 ng·h/mL | Cmax [2, 8]: 0.0798 ± 0.134 ng/mL
Structure (SMILES): CC(C)C[C@H](NC(=O)[C@H](CCCCN)NC(=O)CNC(=O)[C@H](CC(C)C)NC(=O)[C@@H](NC(=O)[C@@H]1CSSC[C@H](N)C(=O)N[C@@H](CO)C(=O)N[C@@H](CC(N)=O)C(=O)N[C@@H](CC(C)C)C(=O)N[C@@H](CO)C(=O)N[C@@H]([C@@H](C)O)C(=O)N1)C(C)C)C(=O)N[C@@H](CO)C(=O)N[C@@H](CCC(N)=O)C(=O)N[C@@H](CCC(=O)O)C(=O)N[C@@H](CC(C)C)C(=O)N[C@@H](Cc1c[nH]cn1)C(=O)N[C@@H](CCCCN)C(=O)N[C@@H](CC(C)C)C(=O)N[C@@H](CCC(N)=O)C(=O)N[C@H](C(=O)N[C@@H](Cc1ccc(O)cc1)C(=O)N1CCC[C@H]1C(=O)N[C@@H](CCCNC(=N)N)C(=O)N[C@H](C(=O)N[C@@H](CC(N)=O)C(=O)N[C@H](C(=O)NCC(=O)N[C@@H](CO)C(=O)NCC(=O)N[C@H](C(=O)N1CCC[C@H]1C(N)=O)[C@@H](C)O)[C@@H](C)O)[C@@H](C)O)[C@@H](C)O [sCT, salmon calcitonin]
